The values below come from patent publication US20220265646A1, “PIEZO AGONISTS FOR PREVENTING OR REVERTING ABNORMAL AMYLOID DEPOSITION” (ITÄ-SUOMEN YLIOPISTO, priority 2019, published 2022).

SMILES strings stand for the structures.

The target of assay [1] is T1, native Piezo1Rs (Homo sapiens, UniProt Q92508).
T1 construct: endogenous in cells; host or cells: human iPSC-derived microglia
Kind of assay: Calcium imaging of Yoda1-evoked Ca2+ influx in hiPSC-derived microglia. The assay is classed as cell-based. The following applies: 50 μM GdCI in BS pre-incubation. On the procedure:
(§1) To study the calcium influx evoked by native Piezo1 Rs expressed in microglia cells the present inventors used short Yoda1 applications (2 s, 50 μM if not otherwise specified). For this purpose, human IPSO derived microglia cells and SV-40 (immortalized human microglia) cells were seeded on 7 mm cover slips 1 day prior to the imaging experiment. Cells were loaded with the calcium-sensitive fluorescent dye Fluo-4AM (5 μM) for 30 min at 37° C. Followed by wash-incubation for 15 min in Ab 20 μM, 50 μM GdCI and basic solution (BS) as a control at 37° C. The basic solution containing the following (BS, in mM): 2.5 KCl, 152 NaCl, 10 glucose, 2 CaCl2, and 10 HEPES at pH 7.4. Fluorescence was visualized using monochromatic light source (TILL Photonics GmbH) using Ex/Im 494/[…] and a CCD camera (SensiCam). Chemicals were applied using a fast perfusion system (RSC-200, BioLogic Science). To quantify the difference in the amplitude of calcium transients, the ratio values were normalized by subtracting a baseline and further divided by the amplitude of the calcium transient to the 2 sec application of the ionomycin. Data were pre-analyzed offline using the FEI offline analysis (TILL Photonics), and further analysis was automatized using MatLab. Quantitative data were expressed as means±SEM unless otherwise stated. Number of experiments is indicated by n. Significance assessed with the ANOVA test or Mann-Whitney t test for non-parametric data. Statistically significant differences were set at*p<0.05 and **p<0.01.
Differentiation of microglia. Differentiation of microglia was carried out as previously described with minor modifications (Abud et al., 2017). Shortly, on DO, iPSCs were dissociated to single cells with 0.5 mM EDTA or Accutase and were replated at a density of 6-,000-16,000 cells/cm2 on Matrigel in E8, 0.5% penicillin/streptomycin (P/S, 50 IU/50 […]), 5 ng/ml BMP4, 25 ng/ml activin a (both from Peprotech or Miltenyi Biotec), 1 μM CHIR 99021 (Axon or Stem Cell Technologies) and 10 μM Y-27632 to induce mesodermal differentiation. […]

Assay [2] concerns the target T2, Piezo1Rs (Homo sapiens, UniProt Q92508).
T2 construct: SV-40 immortalized human microglia cell line which endogenously express Piezo-1 and Piezo2Rs was used; endogenous in cells; host or cells: SV-40 immortalized human microglia cell line
Kind of assay: Calcium imaging of Yoda1-evoked Ca2+ transients in SV-40 immortalized human microglia cell line. The assay is classed as cell-based. Particulars: SV-40 cells, n=13, p=0.00009. On the procedure:
as §1, with “Chemicals were applied using a fast perfusion system (RSC-200, BioLogic Science).” left out, “Number of experiments is indicated by n.” left out, “Statistically significant differences were set at*p<0.05 and **p<0.01.” left out

T1 sequence (Q92508 whole entry): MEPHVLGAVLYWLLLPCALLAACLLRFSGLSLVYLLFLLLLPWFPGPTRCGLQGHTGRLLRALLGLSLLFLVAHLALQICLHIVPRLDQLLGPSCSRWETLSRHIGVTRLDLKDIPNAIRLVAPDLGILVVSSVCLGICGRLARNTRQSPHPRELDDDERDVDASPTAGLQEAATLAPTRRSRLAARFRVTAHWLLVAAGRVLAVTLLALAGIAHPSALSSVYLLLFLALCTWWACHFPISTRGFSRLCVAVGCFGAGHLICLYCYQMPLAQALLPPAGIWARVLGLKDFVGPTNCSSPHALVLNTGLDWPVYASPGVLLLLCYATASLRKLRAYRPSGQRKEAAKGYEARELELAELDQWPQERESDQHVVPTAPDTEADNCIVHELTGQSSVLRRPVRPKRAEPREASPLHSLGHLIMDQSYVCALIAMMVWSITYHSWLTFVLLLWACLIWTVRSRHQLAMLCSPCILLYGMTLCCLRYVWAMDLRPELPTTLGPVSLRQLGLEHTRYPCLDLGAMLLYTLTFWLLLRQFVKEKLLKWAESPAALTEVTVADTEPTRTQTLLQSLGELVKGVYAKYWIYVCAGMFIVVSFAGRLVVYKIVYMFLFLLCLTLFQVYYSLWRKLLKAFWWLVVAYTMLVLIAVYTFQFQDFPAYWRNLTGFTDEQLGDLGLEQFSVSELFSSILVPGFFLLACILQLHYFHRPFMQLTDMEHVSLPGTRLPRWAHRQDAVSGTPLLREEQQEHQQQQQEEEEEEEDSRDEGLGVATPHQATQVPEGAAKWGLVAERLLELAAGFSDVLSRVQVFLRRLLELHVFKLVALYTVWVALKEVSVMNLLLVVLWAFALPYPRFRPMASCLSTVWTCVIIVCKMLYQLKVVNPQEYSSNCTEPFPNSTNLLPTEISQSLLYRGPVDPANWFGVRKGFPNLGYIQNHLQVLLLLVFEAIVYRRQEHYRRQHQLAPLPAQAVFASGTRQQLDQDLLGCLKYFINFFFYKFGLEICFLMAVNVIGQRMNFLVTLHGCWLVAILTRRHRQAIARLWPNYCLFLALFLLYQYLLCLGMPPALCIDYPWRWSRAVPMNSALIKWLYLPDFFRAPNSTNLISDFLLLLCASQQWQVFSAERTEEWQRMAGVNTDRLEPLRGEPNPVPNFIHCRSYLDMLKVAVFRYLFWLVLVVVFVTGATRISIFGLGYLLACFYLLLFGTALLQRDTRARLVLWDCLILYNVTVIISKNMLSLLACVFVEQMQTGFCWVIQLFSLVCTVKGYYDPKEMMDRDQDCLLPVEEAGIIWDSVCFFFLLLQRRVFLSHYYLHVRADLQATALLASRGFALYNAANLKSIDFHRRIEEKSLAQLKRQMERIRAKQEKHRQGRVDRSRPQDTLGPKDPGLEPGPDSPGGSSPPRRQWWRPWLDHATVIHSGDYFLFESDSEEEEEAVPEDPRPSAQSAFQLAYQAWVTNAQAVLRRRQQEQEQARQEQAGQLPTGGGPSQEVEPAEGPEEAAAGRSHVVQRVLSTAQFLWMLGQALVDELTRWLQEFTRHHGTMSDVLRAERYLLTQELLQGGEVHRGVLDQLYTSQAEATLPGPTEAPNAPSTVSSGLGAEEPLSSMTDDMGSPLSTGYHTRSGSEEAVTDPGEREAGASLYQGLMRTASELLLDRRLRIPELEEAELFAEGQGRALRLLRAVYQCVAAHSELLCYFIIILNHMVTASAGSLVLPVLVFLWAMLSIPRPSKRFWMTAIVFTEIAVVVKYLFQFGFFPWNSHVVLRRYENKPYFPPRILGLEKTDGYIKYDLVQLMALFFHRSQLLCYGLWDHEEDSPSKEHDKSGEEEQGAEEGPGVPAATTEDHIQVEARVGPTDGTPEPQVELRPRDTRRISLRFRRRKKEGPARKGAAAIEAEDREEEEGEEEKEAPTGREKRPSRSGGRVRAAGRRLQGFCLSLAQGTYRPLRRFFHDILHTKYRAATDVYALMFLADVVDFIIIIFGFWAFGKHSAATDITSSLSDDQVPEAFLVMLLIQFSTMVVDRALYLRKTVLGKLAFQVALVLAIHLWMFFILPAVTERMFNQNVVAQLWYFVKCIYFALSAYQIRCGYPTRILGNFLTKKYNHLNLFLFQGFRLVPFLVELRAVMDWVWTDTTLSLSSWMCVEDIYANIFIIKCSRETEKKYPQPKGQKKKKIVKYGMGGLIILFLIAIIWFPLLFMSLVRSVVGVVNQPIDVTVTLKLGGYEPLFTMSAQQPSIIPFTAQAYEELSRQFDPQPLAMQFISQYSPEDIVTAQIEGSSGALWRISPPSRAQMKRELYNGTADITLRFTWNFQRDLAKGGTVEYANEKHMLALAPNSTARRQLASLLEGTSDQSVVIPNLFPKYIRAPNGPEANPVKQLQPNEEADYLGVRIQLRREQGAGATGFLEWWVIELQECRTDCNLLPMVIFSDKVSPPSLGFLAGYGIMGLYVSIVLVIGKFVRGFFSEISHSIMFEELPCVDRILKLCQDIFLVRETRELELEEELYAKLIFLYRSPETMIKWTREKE
T2 sequence (Q92508 whole entry): as above

For the molecule `[Cl][Gd]([Cl])[Cl]` [GdCI, Gadolinium chloride], the “Yoda1-activated Ca2+ transients after pre-incubation with GdCI” value in assay [1] (50 μM Yoda1 2 s, n=5, p=0.0073) is recorded as 0.10±0.1. The “inhibition of Yoda1-activated Ca2+ transients” value in assay [1] (hiPSC microglia) was determined as 90%. In addition, the “Yoda1 activated Ca2+ transients after pre-incubation of GdCI” value in assay [2] was found to be 0.17±0.04.
